{
  "source": "paper PMC5777153",
  "about": "(Cell chemical biology, 2017)",
  "system": "human kinome",
  "experiment": "KinomeScan competitive binding assay across the kinome",
  "conditions": "10 μM",
  "data": [
    {"smiles": "COc1cc2c(Oc3ccc(NC(=O)C4(C(=O)Nc5ccc(F)cc5)CC4)cc3F)ccnc2cc1OCCCN1CCOCC1", "note": "[foretinib]", "values": [
      {"measurement": "number of kinases bound (percent of control value of 35 or less)", "value": 133, "unit": "kinases"}
    ]}
  ]
}
